The source made the active and inactive calls.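 Rule for the calls: active = z-score above 3 at 5 µM with at least 500 cells counted in the well; inconclusive = wells under 500 cells, flagged as cytotoxic or low count; inactive = the rest.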
Test system: MIN6 insulin promoter-GFP reporter, high-content imaging
Test: up-regulation of insulin promoter-GFP reporter – imaging, high-content screening, mouse beta cells (AID 1625)

Compound	EC50
CCOC(=O)c1sc2cc([N+](=O)[O-])cc(SCC(C)C)c2c1N	> 16 µM (inactive)
CCCCCCN1C=CC(=C/C=C(\C#N)C(=O)OCC)C=C1	11 µM (inactive)
CC(=O)Nc1cccc(C(=O)/C=C/c2ccc(N(C)C)cc2)c1	12.9 µM (inactive)
CCN(CC)c1ccc(/C=C(/C#N)c2nc3ccc(C)cc3[nH]2)c(OC(C)C)c1	2.87 µM
COc1cc([C@@H]2[C@H]3CN(C)CC=C3C(C#N)=C(N)C2(C#N)C#N)cc2c1OCO2	8.67 µM
Cc1ccc(/C=[N+](\[O-])c2ccc(N(C)C)cc2)c2nsnc12	> 16 µM (inactive)
Cc1nnc(NC(=O)c2sc3nc(-c4cccs4)cc(C(F)(F)F)c3c2N)s1	9.04 µM
N#C/C(=C\c1ccc(-c2ccc(C(=O)O)cc2)o1)c1nc2ccccc2[nH]1	> 16 µM (inactive)
C=CCN1C(=O)c2cccc3c(N4CCCCC4)ccc(c23)C1=O	5.42 µM
CN1C(=O)C(=Cc2ccc(N3CCCCC3)o2)C(=O)N(C)C1=S	> 16 µM (inactive)
COc1ccc(/C(O)=C/c2nc3ccc(C(=O)NCCc4cccc(C)c4)cc3[nH]c2=O)cc1OC	> 16 µM (inactive)
N#Cc1c(C(F)(F)F)cc(-c2ccccc2)nc1SCc1nc(N)nc(N2CCOCC2)n1	3.73 µM
CCCN1C(=O)/C(=C/c2c(NCCCOC(C)C)nc3c(C)cccn3c2=O)SC1=S	> 16 µM (inactive)
CCCN1C=CC(=CC=C(C#N)C#N)C=C1	10.4 µM (inactive)
CC(C)(C)C(=O)/C=c1\s/c(=C\c2ccc(-c3ccc([N+](=O)[O-])cc3)o2)c(=O)n1CC(=O)NC(N)=O	0.829 µM
CCc1cccc2cc3c(N)c(C(=O)Nc4ccc(S(=O)(=O)N5CCCC5)cc4)sc3nc12	10.2 µM (inactive)
O=c1[nH]c2ccccc2nc1/C=C/c1ccc(F)cc1	> 16 µM (inactive)
CC(=O)Oc1ccc2c(c1)Oc1cc(OC(C)=O)ccc1C21OC(=O)c2ccccc21	0.439 µM
Cc1cc(C)cc(N=Cc2[nH]c3ccc(Br)c(Cl)c3c2O)c1	3.42 µM
CCN1CCc2c(sc(NC(=O)Nc3ccc(Cl)c(Cl)c3)c2C(N)=O)C1	1.4 µM
CCOc1cc(N(CC)CC)ccc1/C=C(/C#N)c1nc2ccccc2[nH]1	4.49 µM
Nc1c(C(=O)Nc2nccs2)sc2nc(-c3cccs3)cc(C(F)(F)F)c12	5.91 µM
N#C/C(=C\c1ccc(N2CCCCC2)o1)C(=O)Nc1cccc(Br)c1	0.605 µM
Nc1c(C(=O)N/N=C/c2cccnc2)oc2nc(-c3ccco3)cc(-c3ccco3)c12	> 16 µM (inactive)
Cc1ccc(N2C(=O)C3C(C(=O)c4ccccc4)=NN(c4ccccc4)C3C2=O)cc1 (stereo not drawn)	12.6 µM (inactive)

Compound	EC50
CC(C)OC(=O)CN1C(=O)S/C(=C/c2ccc(N3CCCCC3)o2)C1=O	1.7 µM
O=C1S/C(=C\c2ccc(N3CCOCC3)o2)C(=O)N1c1ccccc1	12.5 µM (inactive)
Cc1cc(/C=C2\NC(=S)N(C)C2=O)ccc1N1CCCC1	8.97 µM
Cc1cc(/C=C2/C(=O)N(C)C(=S)N2C)ccc1N1CCCC1	1.61 µM
CN1CCN(c2ccc(/C=C3\C(=O)NC(=S)N(c4cccc(Br)c4)C3=O)o2)CC1	> 16 µM (inactive)
C=CCSc1nnc(C)c(/C=C/Nc2ccc(Cl)cc2)n1	> 16 µM (inactive)
Nc1c(C(=O)Nc2nc3ccccc3s2)sc2nc(-c3cccs3)ccc12	12.8 µM (inactive)
COc1cccc(C2C3CN(C)CC=C3C(C#N)=C(N)C2(C#N)C#N)c1OC (stereo not drawn)	12.3 µM (inactive)
COc1ccc(N=C2NC(=O)S/C2=C\c2ccc(N(C)C)cc2)cc1	> 16 µM (inactive)
C/C(=N\Nc1ccc([N+](=O)[O-])cc1)c1cc2ccccc2o1	> 16 µM (inactive)
CC1=C/C(=C\C=C(C#N)C#N)N(C)c2ccccc21	> 16 µM (inactive)
COc1ccc(/C=C2\CC/C(=C\c3ccc(OC)cc3OC)C2=O)c(OC)c1	> 16 µM (inactive)
COCCNC(=S)N/N=C/c1ccc(-c2ccc([N+](=O)[O-])cc2)o1	> 16 µM (inactive)
CCN(CC)c1ccc2cc(-c3nnc(-c4ccccc4)o3)c(=O)oc2c1	2.88 µM
COc1cc2c3nnc(-c4ccccc4)c-3cn(Cc3ccccc3F)c2cc1OC	3.09 µM
Cc1nn(C)cc1N1C(=O)c2cccc3c(N)ccc(c23)C1=O	> 16 µM (inactive)
O=C1c2cccc3c(O)ccc(c23)C(=O)N1Cc1ccco1	13.7 µM (inactive)
O=[N+]([O-])c1ccc(N/N=C/c2c[nH]c3ccccc23)cc1	10.8 µM (inactive)
O=C(/C=C/c1c[nH]c2ccccc12)c1c(O)n(CCc2ccccc2)c(=O)[nH]c1=O	> 16 µM (inactive)
CC(=O)Nc1sc(/C(C#N)=C\c2cccc(Cl)c2)nc1-c1ccc(C)cc1	8.92 µM
N#C/C(=C\c1ccc(N2CCCCC2)o1)C(N)=O	10.8 µM (inactive)
Nc1c(C(=O)N/N=C/c2ccccc2Cl)oc2nc(-c3ccccc3)cc(-c3ccco3)c12	> 16 µM (inactive)
N#C/C(=C/c1ccc(-c2ccc(S(N)(=O)=O)cc2)o1)c1nc2ccccc2s1	10 µM (inactive)
O=C(/C=C/c1ccc(N2CCC(c3ccccc3)=N2)cc1)c1ccccc1	2.6 µM
COc1ccc(/C=C2\C(=O)NC(=S)N2C(=O)c2ccc(F)cc2)cc1	> 16 µM (inactive)

Compound	EC50
CN1CC=C2C(C#N)=C(N)C(C#N)(C#N)C(c3cccc(Cl)c3Cl)C2C1 (stereo not drawn)	11.9 µM (inactive)
CC1CCCCC1NC(=O)COC(=O)c1c2c(nc3ccccc13)/C(=C/c1ccco1)CC2 (stereo not drawn)	> 16 µM (inactive)
CC(C)NC(=O)/C(C#N)=C/c1ccc(N(C)C)o1	8.07 µM
O=[N+]([O-])c1ccc(N/N=C/c2cn(Cc3ccc(F)cc3)c3ccccc23)nc1	> 16 µM (inactive)
Cc1ccc(C(=O)NN2C(=O)/C(=C/c3cn(C)c4ccccc34)SC2=S)cc1	> 16 µM (inactive)
CCN(CC)c1ccc2cc(C(N)=O)/c(=N\NC(=O)c3ccncc3)oc2c1	9.67 µM
Cc1cc(N2CCCC2)ccc1/C=C1\NC(=S)N(C)C1=O	9.87 µM
CCOC(=O)CN1C(=O)S/C(=C/c2ccc(N3CCCCC3)o2)C1=O	8.3 µM
Cc1csc(NC(=O)c2sc3nc(-c4cccs4)ccc3c2N)n1	> 16 µM (inactive)
CC(C)N1CC=C2C(C#N)=C(N)C(C#N)(C#N)[C@H](c3ccoc3)[C@H]2C1	8.51 µM
Cc1ccc(CN=Cc2[nH]c3ccc(Br)c(Cl)c3c2O)cc1	> 16 µM (inactive)
Nc1c(C(=O)c2cccs2)sc2nsc(SCCN3CCCCC3)c12	9.62 µM
CC(=O)c1sc2nc(-c3cccs3)cc(C(F)(F)F)c2c1N	7.56 µM
COc1cc2nc(/C=C/c3ccc(N(C)C)cc3)sc2cc1SC	7.43 µM
Cc1ccc(NS(=O)(=O)c2cc([N+](=O)[O-])ccc2N/N=C/c2sc(N3CCOCC3)nc2-c2ccccc2)c(C)c1	> 16 µM (inactive)
COc1ccc2c(c1)NC(c1ccc(N(C)C)cc1)c1cccn1-2 (stereo not drawn)	> 16 µM (inactive)
CCCCn1c(O)c(C(=O)/C=C/c2c[nH]c3ccccc23)c(=O)[nH]c1=O	> 16 µM (inactive)
CCN(CC)c1ccc(C=C(c2nnnn2-c2ccccc2)c2nnnn2-c2ccccc2)cc1	> 16 µM (inactive)
C=CCN1C(=O)/C(=C\C=C2\N(C)c3ccccc3C2(C)C)SC1=S	> 16 µM (inactive)
CCCN1C(=O)S/C(=C\c2ccc(N3CCOCC3)o2)C1=O	13.9 µM (inactive)
Cc1oc(C)c2c(=O)ccc3c(c12)OC(N)=C(C#N)C3c1ccccc1Cl (stereo not drawn)	11.4 µM (inactive)
C=CCN1C(=O)/C(=C/c2ccc(N(C)C)cc2)S/C1=N\c1nnc(CC)s1	3.86 µM
CC(=O)C1=C(C)NC(SCC(=O)c2ccc(Cl)c(Cl)c2)=C(C#N)C1c1ccco1 (stereo not drawn)	> 16 µM (inactive)
CCOC(=O)c1nn(-c2ccc(Cl)cc2Cl)c(=N)c(C#N)c1C	7.31 µM
CCN(CC)c1ccc2cc(-c3nc(-c4ccc(OC)cc4)cs3)c(=O)oc2c1	< 0.25 µM

Compound	EC50
O=[N+]([O-])c1ccc(-c2ccc(/C=N/Nc3nc(N4CCCCC4)nc(N4CCCCC4)n3)o2)cc1	> 16 µM (inactive)
CC[n+]1c(/C=C/C=C/N(C(C)=O)c2ccccc2)sc2cc(OC)ccc21	0.887 µM
CC(C)N1CC=C2C(C#N)=C(N)C(C#N)(C#N)C(c3ccccc3)C2C1 (stereo not drawn)	6 µM
CCCN1C=CC(=C/C=C(\C#N)C(=O)OCC)C=C1	> 16 µM (inactive)
COC(=O)c1cc2c(-c3ccccc3)cc3ccccn3c-2c1C(=O)OC	> 16 µM (inactive)
Cc1cccn2c(=O)c(/C=C3\SC(=S)N(CC(C)C)C3=O)c(NCCCOC(C)C)nc12	> 16 µM (inactive)
N#C/C(=C\c1ccc(N2CCOCC2)o1)c1ccccc1	> 16 µM (inactive)
CCN1CC=C2C(C#N)=C(N)C(C#N)(C#N)C(CCc3ccccc3)C2C1 (stereo not drawn)	8.02 µM
CN1/C(=C\C=C2C(=O)NC(=S)NC2=O)C(C)(C)c2ccccc21	3.89 µM
CN(C)c1ccc(/C=C2\SC(=O)N(CC(O)Cn3c4ccccc4c4ccccc43)C2=O)cc1 (stereo not drawn)	> 16 µM (inactive)
CCOC(=O)/C(C#N)=C/C=C1\C=Cc2ccccc2N1CC	> 16 µM (inactive)
COc1ccc(CN=Cc2[nH]c3ccc(Br)c(Cl)c3c2O)cc1	> 16 µM (inactive)
Cc1c(N=C2N=C(NC(=O)c3cccs3)c3ccccc32)c(=O)n(-c2ccccc2)n1C	13.9 µM (inactive)
N#C/C(=C\c1ccc(N2CCOCC2)o1)C(=O)NCCc1ccccc1	> 16 µM (inactive)
Cc1ccc(-c2ccc(/C=C(\C#N)C(=O)Nc3cc(C)nn3-c3ccccc3)o2)cc1	> 16 µM (inactive)
CC1=CN2C(=N)/C(=C/c3ccc([N+](=O)[O-])o3)C(=O)N=C2S1	> 16 µM (inactive)
CCOC(=O)N1CCN(/C=C(\C#N)c2nc3ccccc3s2)CC1	> 16 µM (inactive)
CN1C(=S)N(c2cccnc2)C(=O)/C1=C\c1ccc(N(C)C)cc1	> 16 µM (inactive)
N#C/C(=C/c1ccc(N2CCCCC2)o1)C(=O)Nc1ccc(Cl)cc1	0.482 µM
CC(C)/C=C1\CC/C(=C\c2ccc(N(C)C)cc2)C1=O	> 16 µM (inactive)
Cc1noc(/C=C/c2ccc(-c3ccccc3Cl)o2)c1[N+](=O)[O-]	5.6 µM
CCCNc1c(F)c(F)c2c(C)c3ccccc3nc2c1F	8.02 µM
O=C1c2cccc3c(O)ccc(c23)C(=O)N1Cc1ccccc1	5.65 µM

Source: PubChem BioAssay AID1625 (Sanford-Burnham Center for Chemical Genomics, 2009)
